Assay [1] addresses T1, Tyrosine-protein phosphatase non-receptor type 1 (Homo sapiens, UniProt P18031).
T1 sequence (P18031 whole entry): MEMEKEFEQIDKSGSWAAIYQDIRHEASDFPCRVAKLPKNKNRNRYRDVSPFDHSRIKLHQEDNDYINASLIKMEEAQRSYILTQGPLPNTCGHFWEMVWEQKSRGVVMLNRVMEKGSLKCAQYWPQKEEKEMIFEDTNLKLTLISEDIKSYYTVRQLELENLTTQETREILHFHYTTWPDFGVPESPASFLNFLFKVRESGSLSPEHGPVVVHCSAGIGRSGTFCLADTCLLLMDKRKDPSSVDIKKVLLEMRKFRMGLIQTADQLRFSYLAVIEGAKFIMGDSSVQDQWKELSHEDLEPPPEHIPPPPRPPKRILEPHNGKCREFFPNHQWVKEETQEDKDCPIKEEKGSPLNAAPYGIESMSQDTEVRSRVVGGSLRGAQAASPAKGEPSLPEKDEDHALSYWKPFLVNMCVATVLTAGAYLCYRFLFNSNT
Put plainly: Inhibition of wild type N-terminal 6 his tagged human PTP1B (1 to 400 residues) expressed in Escherichia coli (Rosetta, DE3) using p-NPP as substrate preincubated for 10 mins followed by substrate addition and measured after 20 mins by absorbance based analysis.

In assay [2] the target is T2, Tyrosine-protein phosphatase non-receptor type 1 (Homo sapiens) (UniProt P18031).
T2 sequence (whole entry): T1 sequence (P18031 whole entry)
Briefly: Inhibition of wild type N-terminal 6 his tagged human PTP1B (1 to 400 residues) expressed in Escherichia coli (Rosetta, DE3) using p-NPP as substrate at 100 uM preincubated for 10 mins followed by substrate addition and measured after 20 mins by absorbance based analysis. The following applies: time 30.0 min.

Assay [3] concerns the target T2, Tyrosine-protein phosphatase non-receptor type 1 (Homo sapiens). Briefly: Binding affinity to wild type N-terminal 6 his tagged human PTP1B (1 to 400 residues) expressed in Escherichia coli (Rosetta, DE3) assessed as affinity constant by fluorescence based analysis.

These results are taken from ChEMBL document CHEMBL5375978, “Harnessing the Reactivity of Duclauxin toward Obtaining hPTP1B1-400 Inhibitors” (J Med Chem, 2023).

The structures appear in SMILES notation. pIC50: −log10 of the molar value. The source made the active and inactive calls. The rule behind the calls is not given here.

For orientation: pIC50 means the IC50 on a negative log10 scale, so that one unit is a factor of ten. Lower therefore signals a large IC50.

Take `CC(=O)O[C@H]1[C@@H]2C(=O)c3c(C)cc(O)c4c3[C@@]1(COC4=O)C1=C2c2c(C)cc(O)c3c(=O)n(-c4ccccn4)cc(c23)C1=O`: the pIC50 in assay [1] was 4.44.
`CO[C@H]1OC(=O)c2c(O)cc(C)c3c4c(c(O)c1c23)[C@]12COC(=O)c3c(O)cc(C)c(c31)C(=O)[C@H]4[C@@H]2OC(C)=O` had a negative-log IC50 (pIC50) in assay [1] of 4.42.
Still for that read-out and setting: in the case of `CO[C@@]12c3c(C)cc(O)c4c(=O)n(-c5cccc([N+](=O)[O-])c5)cc(c34)C(=O)[C@@H]1[C@]13COC(=O)c4c(O)cc(C)c(c41)C(=O)[C@H]2[C@@H]3OC(C)=O` it was 4.91; in that of `CO[C@@]12c3c(C)cc(O)c4c(=O)n(-c5ccc(Br)cc5)cc(c34)C(=O)[C@@H]1[C@]13COC(=O)c4c(O)cc(C)c(c41)C(=O)[C@H]2[C@@H]3OC(C)=O`, 4.32.
On the same count and under the same terms, under `CO[C@@]12c3c(C)cc(O)c4c(=O)n(-c5ccc(C)cc5)cc(c34)C(=O)[C@@H]1[C@]13COC(=O)c4c(O)cc(C)c(c41)C(=O)[C@H]2[C@@H]3OC(C)=O` stands 4.45; under `CC(=O)O[C@H]1[C@@H]2C(=O)c3c(C)cc(O)c4c3[C@@]1(COC4=O)C1=C2c2c(C)cc(O)c3c(=O)n(-c4cccc([N+](=O)[O-])c4)cc(c23)C1=O`, 5.10.
Still for that read-out and setting: in the case of `CC(=O)O[C@H]1[C@@H]2C(=O)c3c(C)cc(O)c4c3[C@@]1(COC4=O)C1=C2c2c(C)cc(O)c3c(=O)n(-c4ccc5ncccc5c4)cc(c23)C1=O` it was 5.24.
As for `CO[C@@]12c3c(C)cc(O)c4c(=O)n([C@@H](CC(=O)O)C(=O)O)cc(c34)C(=O)[C@@H]1[C@]13COC(=O)c4c(O)cc(C)c(c41)C(=O)[C@H]2[C@@H]3OC(C)=O`, in assay [2], the inhibition entry was “inactive”.
Turning to `CC(=O)O[C@H]1[C@@H]2C(=O)c3c(C)cc(O)c4c3[C@@]1(COC4=O)C1=C2c2c(C)cc(O)c3c(=O)n(-c4cccnc4)cc(c23)C1=O`, the negative logarithm of the IC50 (pIC50) in assay [1] was 4.24.
The same measure, in the same setting: under `COc1ccc(-n2cc3c4c(c(C)cc(O)c4c2=O)C2=C(C3=O)[C@]34COC(=O)c5c(O)cc(C)c(c53)C(=O)[C@H]2[C@@H]4OC(C)=O)cc1` stands 4.83.
The same measure, in the same setting: in the case of `CC(=O)O[C@H]1[C@@H]2C(=O)c3c(C)cc(O)c4c3[C@@]1(COC4=O)C1=C2c2c(C)cc(O)c3c(=O)n(-c4cc(C)ccn4)cc(c23)C1=O` it was 4.80; in that of `CC(=O)O[C@H]1[C@@H]2C(=O)c3c(C)cc(O)c4c3[C@@]1(COC4=O)C1=C2c2c(C)cc(O)c3c(=O)n(-c4cccc5ncccc45)cc(c23)C1=O`, 4.80.
On the same count and under the same terms, in the case of `CC(=O)O[C@H]1[C@@H]2C(=O)c3c(C)cc(O)c4c3[C@@]1(COC4=O)C1=C2c2c(C)cc(O)c3c(=O)n(-c4ccccc4Cl)cc(c23)C1=O` it was 4.41; in that of `CC(=O)O[C@H]1[C@@H]2C(=O)c3c(C)cc(O)c4c3[C@@]1(COC4=O)C1=C2c2c(C)cc(O)c3c(=O)n(-c4ccc(O)cc4[N+](=O)[O-])cc(c23)C1=O`, 4.50.
On to `CCOC(=O)[C@H](Cc1ccccc1)n1cc2c3c(c(C)cc(O)c3c1=O)[C@]1(OC)[C@H](C2=O)[C@]23COC(=O)c4c(O)cc(C)c(c42)C(=O)[C@H]1[C@@H]3OC(C)=O`, for which the negative logarithm of the IC50 (pIC50) in assay [1] is 4.25.
On the same count and under the same terms, in the case of `CC(=O)O[C@H]1[C@@H]2C(=O)c3c(C)cc(O)c4c3[C@@]1(COC4=O)C1=C2c2c(C)cc(O)c3c(=O)n(-c4cccc(Cl)c4)cc(c23)C1=O` it was 4.63.
Still for that read-out and setting: under `CC(=O)O[C@H]1[C@@H]2C(=O)c3c(C)cc(O)c4c3[C@@]1(COC4=O)C1=C2c2c(C)cc(O)c3c(=O)n(-c4ccc(C)cc4)cc(c23)C1=O` stands 5.49.
Still for that read-out and setting: under `CC(=O)O[C@H]1[C@@H]2C(=O)c3c(C)cc(O)c4c3[C@@]1(COC4=O)C1=C2c2c(C)cc(O)c3c(=O)n(-c4cnc5ccccc5c4)cc(c23)C1=O` stands 4.63; under `COc1ccc(-n2cc3c4c(c(C)cc(O)c4c2=O)C2=C(C3=O)[C@]34COC(=O)c5c(O)cc(C)c(c53)C(=O)[C@H]2[C@@H]4OC(C)=O)cc1OC`, 4.77.
Turning to `CC(=O)O[C@H]1[C@@H]2C(=O)c3c(C)cc(O)c4c3[C@@]1(COC4=O)c1c(O)c3c4c(c(O)cc(C)c4c12)C(=O)OC3=O`, the pIC50 in assay [1] was 4.66.
In the case of `CO[C@@]12c3c(C)cc(O)c4c(=O)n(-c5ccc([N+](=O)[O-])cc5)cc(c34)C(=O)[C@@H]1[C@]13COC(=O)c4c(O)cc(C)c(c41)C(=O)[C@H]2[C@@H]3OC(C)=O`, in assay [1], the pIC50 was 5.11. In addition, in assay [3], the Ka was 2.1 10^5/M.
In assay [1], `CC(=O)O[C@H]1[C@@H]2C(=O)c3c(C)cc(O)c4c3[C@@]1(COC4=O)C1=C2c2c(C)cc(O)c3c(=O)n(-c4ccccc4)cc(c23)C1=O` showed a pIC50 of 4.11.
In the case of `CO[C@@]12c3c(C)cc(O)c4c3C(=C(O)[C@@H]1[C@]13COC(=O)c5c(O)cc(C)c(c51)C(=O)[C@H]2[C@@H]3OC(C)=O)C=NC4=O`, in assay [1], the negative logarithm of the IC50 (pIC50) is 4.63.
The same measure, in the same setting: under `CCOC(=O)[C@H](Cc1ccccc1)n1cc2c3c(c(C)cc(O)c3c1=O)C1=C(C2=O)[C@]23COC(=O)c4c(O)cc(C)c(c42)C(=O)[C@H]1[C@@H]3OC(C)=O` stands 4.64.
On the same count and under the same terms, under `CC(=O)O[C@H]1[C@@H]2C(=O)c3c(C)cc(O)c4c3[C@@]1(COC4=O)C1=C2c2c(C)cc(O)c3c(=O)n(-c4ccccc4O)cc(c23)C1=O` stands 4.88; under `CC(=O)O[C@H]1[C@@H]2C(=O)c3c(C)cc(O)c4c3[C@@]1(COC4=O)C1=C2c2c(C)cc(O)c3c(=O)n(-c4ncccc4C)cc(c23)C1=O`, 4.49.
The molecule `CC(=O)O[C@H]1[C@@H]2C(=O)c3c(C)cc(O)c4c3[C@@]1(COC4=O)C1=C2c2c(C)cc(O)c3c(=O)n(-c4cccc5cccnc45)cc(c23)C1=O` had a negative logarithm of the IC50 (pIC50) in assay [1] of 5.19.
The same measure, in the same setting: in the case of `COc1cc(-n2cc3c4c(c(C)cc(O)c4c2=O)C2=C(C3=O)[C@]34COC(=O)c5c(O)cc(C)c(c53)C(=O)[C@H]2[C@@H]4OC(C)=O)cc(OC)c1OC` it was 4.28; in that of `CC(=O)O[C@H]1[C@@H]2C(=O)c3c(C)cc(O)c4c3[C@@]1(COC4=O)C1=C2c2c(C)cc(O)c3c(=O)n(-c4ccc(Br)cc4)cc(c23)C1=O`, 5.03.
Turning to `CC(=O)O[C@H]1[C@@H]2C(=O)c3c(C)cc(O)c4c3[C@@]1(COC4=O)C1=C2c2c(C)cc(O)c3c(=O)n(-c4ccccc4I)cc(c23)C1=O`, the pIC50 in assay [1] is 4.76.
Still for that read-out and setting: under `CC(=O)O[C@H]1[C@@H]2C(=O)c3c(C)cc(O)c4c3[C@@]1(COC4=O)c1c(O)c3c4c(c(O)cc(C)c4c12)C(=O)O3` stands 4.09; under `CO[C@@]12c3c(C)cc(O)c4c(=O)n(CC(=O)O)cc(c34)C(=O)[C@@H]1[C@]13COC(=O)c4c(O)cc(C)c(c41)C(=O)[C@H]2[C@@H]3OC(C)=O`, 4.87; under `CC(=O)O[C@H]1[C@@H]2C(=O)c3c(C)cc(O)c4c3[C@@]1(COC4=O)c1c(O)c(C=O)c3cc(O)cc(C)c3c12`, 5.46.
On the same count and under the same terms, under `CC(=O)O[C@H]1[C@@H]2C(=O)c3c(C)cc(O)c4c3[C@@]1(COC4=O)C1=C2c2c(C)cc(O)c3c(=O)n(-c4ccccc4F)cc(c23)C1=O` stands 4.46; under `CC(=O)O[C@H]1[C@@H]2C(=O)c3c(C)cc(O)c4c3[C@@]1(COC4=O)C1=C2c2c(C)cc(O)c3c(=O)n(-c4ccc(O)cc4)cc(c23)C1=O`, 4.63.
For `CO[C@@]12c3c(C)cc(O)c4c(=O)n(-c5ccccc5)cc(c34)C(=O)[C@@H]1[C@]13COC(=O)c4c(O)cc(C)c(c41)C(=O)[C@H]2[C@@H]3OC(C)=O`, the inhibition entry in assay [2] is “inactive”.
For the molecule `CO[C@@]12c3c(C)cc(O)c4c(=O)n(-c5cccc(Cl)c5)cc(c34)C(=O)[C@@H]1[C@]13COC(=O)c4c(O)cc(C)c(c41)C(=O)[C@H]2[C@@H]3OC(C)=O`, the negative-log IC50 (pIC50) in assay [1] is 4.14.
The same measure, in the same setting: in the case of `CC(=O)O[C@H]1[C@@H]2C(=O)c3c(C)cc(O)c4c3[C@@]1(COC4=O)C1=C2c2c(C)cc(O)c3c(=O)[nH]cc(c23)C1=O` it was 4.44; in that of `CC(=O)O[C@H]1[C@@H]2C(=O)c3c(C)cc(O)c4c3[C@@]1(COC4=O)C1=C2c2c(C)cc(O)c3c(=O)n(-c4ccc(I)cc4)cc(c23)C1=O`, 4.89.
Same read-out and setting: in the case of `CC(=O)O[C@H]1[C@@H]2C(=O)c3c(C)cc(O)c4c3[C@@]1(COC4=O)C1=C2c2c(C)cc(O)c3c(=O)n(-c4ccc(Cl)cc4)cc(c23)C1=O` it was 4.86.
`CC(=O)O[C@H]1[C@@H]2C(=O)c3c(C)cc(O)c4c3[C@@]1(COC4=O)C1=C2c2c(C)cc(O)c3c(=O)n(-c4ccccc4[N+](=O)[O-])cc(c23)C1=O` gave a pIC50 in assay [1] of 4.57.
On the same count and under the same terms, under `CO[C@@H]1OC(=O)c2c(O)cc(C)c3c4c(c(O)c1c23)[C@]12COC(=O)c3c(O)cc(C)c(c31)C(=O)[C@H]4[C@@H]2OC(C)=O` stands 4.90.
As to `CO[C@@]12c3c(C)cc(O)c4c(=O)n([C@H](C(=O)O)C(C)C)cc(c34)C(=O)[C@@H]1[C@]13COC(=O)c4c(O)cc(C)c(c41)C(=O)[C@H]2[C@@H]3OC(C)=O`, in assay [2], the inhibition entry is “inactive”.
